Activity calls are given as the source filed them.
Columns and labels:
[1] = growth inhibition of yeast DHODH-expressing 3D7 parasites – SYBR Green, dry powder samples, dose response (AID 1159570); assay type: functional, cell-based;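 further: parasite growth measured after 72 hours of compound exposure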
[2] = P. falciparum Dd2 growth inhibitors, dose response, SYBR Green, cherry-picked samples (AID 1159567); assay type: functional, cell-based
[3] = toxicity to human HepG2 hepatoma cells – cell-based, plate reader, dry powder samples, cytotoxicity control, dose response (AID 1159569); assay type: functional;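 further: inhibitor potency with signal falling toward the positive control level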
[4] = Plasmodium falciparum Dd2 Sybr green parasite growth Measured in Cell-Based and Microorganism Combination System Using Plate Reader - 2153-01_Inhibitor_Dose_DryPowder_Activity_Set3.; assay type: functional
[5] = growth inhibition of PfATP4-mutant resistant parasites – NITD609-resistant line, SYBR Green, dry powder, dose response (AID 1159571); assay type: functional, cell-based;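 further: parasites synchronized at ring stage by sorbitol before testing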
[6] = Dd2 malaria parasite growth inhibition potency – SYBR Green, dry powder samples, dose response (AID 1159566); assay type: functional, cell-based;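 further: potency for growth inhibition with lower SYBR green DNA signal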
[7] = RKO cell viability reduction, dose response, CellTiter-Glo luminescence (AID 1117322); assay type: functional
[8] = cytotoxicity toward HCT116 cells – cell-based, CellTiter-Glo luminescence, IC50, dose response (AID 1117332); assay type: functional; settings: HCT-116
[9] = SNU-C1 cell viability reduction, dose response, CellTiter-Glo luminescence (AID 1117323); assay type: functional, cell-based
[10] = CellTiter-Glo luminescence survival assay, SW480 colon tumor line, concentration-response curve, half-maximal inhibitory concentration (AID 1117338); assay type: functional
[11] = cytotoxicity toward Colo320 cells – cell-based, CellTiter-Glo luminescence, IC50, dose response (AID 1117334); assay type: functional; settings: COLO 320
[12] = HCT116 cell viability decrease, GSK3B pretreatment – CellTiter-Glo, IC50, dose response (AID 1117339); assay type: functional; settings: HCT-116
[13] = cytotoxicity toward HT-29 cells – cell-based, CellTiter-Glo luminescence, IC50, dose response (AID 1117330); assay type: functional
[14] = Reduced DLD-1 viability, concentration-response, CellTiter-Glo luminescence (AID 1117352); assay type: functional
[15] = HGIII-sPLA2 enzyme inhibition potency – biochemical, QFRET, IC50, dose response (AID 743457);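 further: green fluorescence rise as the enzyme cleaves BODIPY PC-A2 in liposomes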
HeLa = test: viability loss in HeLa cells – cell-based, ATP luminescence, cherry-pick samples, cytotoxicity control, dose response (AID 687004); assay type: functional; settings: Homo sapiens
[16] = HEK293 Cytotoxicity Assay Measured in Cell-Based System Using Plate Reader - 7071-01_Inhibitor_Dose_CherryPick_Activity_Set2.; assay type: functional
HEK293 = test: viability loss in HEK293T cells – cell-based, ATP luminescence, cherry-pick samples, cytotoxicity control, dose response (AID 687005); assay type: functional; settings: Homo sapiens;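 further: cells exposed to compound for 48 hours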
[17] = molecular target: Potassium channel subfamily K member 3 (Homo sapiens, UniProt O14649); test: inhibition of human KCNK3 channel flux – CHO cells, FluxOR thallium flux, SAR follow-up (AID 652212); assay type: functional
[18] = molecular target: Potassium channel subfamily K member 9 (Homo sapiens, UniProt Q9NPC2); test: KCNK9 flux blockade, concentration-response – cell-based, FluxOR thallium flux, selectivity assay for TASK1 inhibitor project, SAR follow-up (AID 652211); assay type: functional;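 further: potency is for inhibitors of the channel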
[19] = alpha-synuclein stem-loop luciferase translation blockers – H4 neuroglioma cells, luminescence, confirmation (AID 1988); assay type: functional, cell-based
[20] = Luminescence Cell-Based Dose Response HTS to Identify Inhibitors of 5'UTR Stem-Loop Driven Prion Protein mRNA Translation in H4 Neuroglioblastoma Cells. [Related pubchem assays: 1827 (Project Summary), 1813 (Primary HTS)]; assay type: functional
[21] = luciferase reporter signal suppression in cells – H4 neuroglioma cells, luminescence, dose response (AID 1990); assay type: functional, cell-based
cells [22] = settings: A549
fMet-Leu-Phe receptor = fMet-Leu-Phe receptor (Homo sapiens, UniProt P21462); test: formyl peptide receptor binders – dose response (AID 519); assay type: functional
[23] = Late stage assay provider results from the probe development effort to identify inhibitors of the Plasmodium falciparum M18 Aspartyl Aminopeptidase (M18AAP): radiolabel-based cell-based dose response assay to identify compounds that inhibit P. falciparum growth in RBCs, Set 2..; assay type: functional
cells [24] = settings: HEK293;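 further: cells exposed to compound for 48 hours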
[25] = viability loss in MITF-independent A375 cells – cell-based, CellTiter-Glo luminescence, dry powder, set 7, counter-screen for MITF inhibitor project, dose response (AID 624490); assay type: functional; settings: A-375
[26] = cytotoxicity in melanoma parental cells – cell-based, CellTiter-Glo, dry powder, set 6, MITF inhibitor project, dose response (AID 624429); assay type: functional; settings: SK-MEL-5
[27] = MITF Orthogonal Assay: SK-MEL-5 CTG Assay Measured in Cell-Based System Using Plate Reader - 2084-02_Inhibitor_Dose_DryPowder_Activity_Set5.; assay type: functional
[28] = MITF Measured in Cell-Based System Using Plate Reader - 2084-01_Inhibitor_Dose_DryPowder_Activity_Set7.; assay type: functional
[29] = MITF Measured in Cell-Based System Using Plate Reader - 2084-01_Inhibitor_Dose_DryPowder_Activity_Set6.; assay type: functional
[30] = molecular target: T1, Ubiquitin-conjugating enzyme E2 N (Homo sapiens, UniProt P61088); assay type: functional;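 further: Dose-response confirmation in a TR-FRET assay detecting UBC13-driven polyubiquitin chain formation, inhibition measured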
T1 sequence (P61088 whole entry): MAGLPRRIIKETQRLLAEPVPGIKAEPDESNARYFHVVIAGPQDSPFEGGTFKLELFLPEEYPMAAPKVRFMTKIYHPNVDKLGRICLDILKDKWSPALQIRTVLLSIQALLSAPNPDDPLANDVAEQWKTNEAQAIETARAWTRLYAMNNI

[31] = molecular target: RNA-editing ligase 1, mitochondrial (Trypanosoma brucei brucei, UniProt P86926); test: inhibition of trypanosome RNA editing ligase – biochemical, fluorescence, Trypanosoma brucei, dose response (AID 1117295); assay type: functional
[32] = microbe, parasite or virus in culture; assay type: functional; settings: Mycobacterium tuberculosis
[33] = molecular target: Metabotropic glutamate receptor 7 (Homo sapiens, UniProt Q14831); test: potentiation of glutamate EC20 at mGlu7 – cell-based, calcium mobilization, Galpha15, dose response (AID 743384); assay type: functional
[34] = IC50 of insulin release inhibition, rat insulinoma INS-1E line, 5 mM glucose, cell-based (AID 1117331); assay type: functional
[35] = viability loss in HepG2 hepatoma cells – cell-based, ATP luminescence, dry powder, set 2, cytotoxicity control, dose response (AID 743129); assay type: functional
[36] = loss of HEK293T viability via ATP – cell-based, plate reader, dry powder, set 10, cytotoxicity control, dose response (AID 743315); assay type: functional; settings: HEK293
[37] = PAX8-dependent cell viability loss – plate reader, dry powder, dose response (AID 743049); assay type: functional, cell-based
[38] = inhibitors acting on PAX2 in cells – cell-based, plate reader, dry powder samples, selectivity assay for PAX8 inhibitor project, dose response (AID 743048); assay type: functional;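 further: HEK293 cells carrying a WT1 promoter luciferase reporter driven by expressed Pax2; potency is for inhibition of Pax2 driven reporter signal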
[39] = PAX5 cellular inhibition readout – cell-based, plate reader, dry powder samples, selectivity assay for PAX8 inhibitor project, dose response (AID 743047); assay type: functional;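 further: HEK293 cells carrying a Pax5 driven CD19 promoter luciferase reporter; potency of inhibitors that lower reporter luminescence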
[40] = OVCAR8 cell viability loss – plate reader, dry powder samples, PAX8 project, dose response (AID 743197); assay type: functional, cell-based; settings: OVCAR-8
Paired box protein Pax-8 = Paired box protein Pax-8 (Homo sapiens, UniProt Q06710); test: PAX8 transcriptional activity inhibition in RMG-I – RMG-I cells, luciferase, cherry-pick, dose response (AID 687027); assay type: functional, cell-based;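 further: luciferase reporter driven by Pax8 target thyroperoxidase promoter measured by SteadyGlo luminescence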
[41] = COV434 cell viability loss – plate reader, dry powder, SA7, cytotoxicity control for PAX8 inhibitor project, dose response (AID 743145); assay type: functional, cell-based
[42] = A2780 cell killing – plate reader, dry powder samples, cytotoxicity control, dose response (AID 743046); assay type: functional, cell-based
cells [43] = test: cells
Major prion protein = Major prion protein (Homo sapiens, UniProt P04156); assay type: functional, cell-based
[44] = HeLa cell viability loss – plate reader, dry powder, cytotoxicity control, dose response (AID 651946); assay type: functional, cell-based
[45] = molecular target: T2, Oxysterols receptor LXR-beta (Homo sapiens, UniProt P55055); assay type: functional, cell-based;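 further: agonist activity at LXR measured by a cell-based luminescence readout across a dose range, run as a counterscreen for daf-12 agonists; HEK293 cells with Gal4-LXR fusion and GAL4-driven luciferase reporter; potency for activation of Gal4-LXR reporter so compounds are agonists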
T2 sequence (P55055 whole entry): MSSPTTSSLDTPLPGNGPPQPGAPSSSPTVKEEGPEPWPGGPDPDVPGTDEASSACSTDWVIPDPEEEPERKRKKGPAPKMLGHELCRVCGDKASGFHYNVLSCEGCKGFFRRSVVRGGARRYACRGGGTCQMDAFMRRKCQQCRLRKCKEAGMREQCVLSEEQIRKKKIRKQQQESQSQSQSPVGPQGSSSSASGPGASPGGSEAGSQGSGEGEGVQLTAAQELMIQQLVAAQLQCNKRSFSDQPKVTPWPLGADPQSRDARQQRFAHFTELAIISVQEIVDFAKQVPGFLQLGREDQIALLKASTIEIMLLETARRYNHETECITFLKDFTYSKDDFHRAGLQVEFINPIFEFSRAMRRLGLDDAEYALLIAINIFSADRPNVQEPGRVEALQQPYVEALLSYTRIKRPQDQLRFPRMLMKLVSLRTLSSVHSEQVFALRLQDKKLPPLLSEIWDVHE

[46] = molecular target: NAD-dependent protein deacylase sirtuin-5, mitochondrial (Homo sapiens, UniProt Q9NXA8); test: sirtuin-5 deacylation blockers, concentration series – biochemical, fluorescence imaging, cherry-pick, set 5, dose response (AID 720591);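 further: desuccinylation of succinyl peptide AMC substrate read as fluorescence after trypsin release; potency of inhibitors that lower fluorescence and may act on trypsin instead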
[47] = Late stage assay provider results from the probe development effort to identify selective inhibitors of heat shock protein 90 (HSP90): Absorbance-based cell proliferation assay in SKBR3 cells.; assay type: functional; settings: SK-BR-3
[48] = Late stage assay provider results from the probe development effort to identify selective inhibitors of heat shock protein 90 (HSP90): Absorbance-based cell proliferation assay in MCF7 cells.; assay type: functional

## CCCNC(=O)N1[C@H](C#N)[C@H](c2ccc(C3=CCCCC3)cc2)[C@H]1CO
[1]
  AC50: 18.3 µM (active)
[2]
  AC50: 0.424 µM (active)
[3]
  AC50: > 100 µM (inactive)
[4]
  AC50: 0.374 µM (active)
[5]
  AC50: 0.163 µM (active)
[6]
  AC50: 0.113 µM (active)

## CC=CC1C(C(=O)OCc2c(F)c(F)c(COC)c(F)c2F)C1(C)C (stereo not given)
[7]
  IC50: > 20 µM (inactive)
[8]
  IC50: > 20 µM (inactive)
[9]
  IC50: > 20 µM (inactive)
[10]
  IC50: > 20 µM (inactive)
[11]
  IC50: > 20 µM (inactive)
[12]
  IC50: > 20 µM (inactive)
[13]
  IC50: > 20 µM (inactive)
[14]
  IC50: > 20 µM (inactive)

## Cc1ccccc1N=C(S)c1nc2ccccc2[nH]1
[15]
  IC50: > 122 µM (inactive)

## C[C@H]1CN([C@@H](C)CO)S(=O)(=O)c2ccc(C#Cc3cccc(F)c3)cc2O[C@@H]1CN(C)C(=O)NC1CCCCC1
HeLa
  AC50: 34.4 µM (active)
[16]
  AC50: 8.15 µM (active)
HEK293
  AC50: 8.15 µM (active)

## Cc1cccc(C(=O)Nc2cccc(NC(=O)c3cccs3)c2)c1
[17]
  IC50: 0.007 µM (active)
[18]
  IC50: 0.23 µM (active)

## CCC(=O)NCCCNc1nc2c(C)cccc2cc1C#N
[19]
  EC50: > 120 µM (not active)
[20]
  EC50: > 120 µM (not active)
[21]
  EC50: 25.9 µM (active)
Cells [22]
  AC50: > 52 µM (inactive)

## Cc1ccc(C(=O)C2=C(O)C(=O)N(Cc3ccccc3)C2c2cccnc2)o1 (stereo not given)
fMet-Leu-Phe receptor
  Ki: > 66.7 µM (inactive)

## COc1ccc(CCNc2c3c(nc4ccccc24)CCCC3)cc1OC
[23]
  IC50: 16.5 µM (inactive)

## Cc1cccn2c(=O)c3cc(C(=O)NCc4ccc(F)cc4)c(=N)n(CCCN4CCOCC4)c3nc12
Cells [24]
  AC50: > 52 µM (inactive)

## O=C1C(NS(=O)(=O)c2ccccc2)=C(c2ccccc2)C(=O)c2ccccc21
[25]
  AC50: > 70 µM (inactive)
[26]
  AC50: 65.6 µM (active)
[27]
  AC50: 56.7 µM (active)
[28]
  AC50: 41 µM (active)
[29]
  AC50: 61.4 µM (active)

## COc1ccc(C[C@H]2CN3C(=NC[C@H]3Cc3ccccc3)N2CCNC(=O)CCC2CCCCC2)cc1
[30]
  IC50: > 20 µM (inactive)
[31]
  IC50: > 96.6 µM (inactive)
[32]
  CC50: 23.8 µM (active)

## CC(=O)Nc1ccc(OCC(=O)c2cc(C)n(-c3ccc(OC(F)F)cc3)c2C)cc1
[33]
  EC50: 2.4 µM (active)

## CNCCCCOc1ccccc1Cc1ccccc1 [BIFEMELANE]
[34]
  IC50: > 33.3 µM (inactive)

## Cc1ccc(OCCn2c(SCCO)nc3ccccc32)c(C(C)C)c1
[35]
  AC50: 50.8 µM (active)
[36]
  AC50: 31.2 µM (active)

## CCCC#Cc1ccc([C@@H]2[C@@H](C#N)N(S(=O)(=O)c3cccc(F)c3)[C@H]2CO)cc1
[37]
  AC50: 37 µM (active)
[38]
  AC50: 28.2 µM (active)
[39]
  AC50: 24.2 µM (active)
[40]
  AC50: 43.1 µM (active)
Paired box protein Pax-8
  AC50: 5.96 µM (active)
[41]
  AC50: > 70 µM (inactive)

## COc1ccc2c3c(n(C)c2c1)[C@H](CO)N(C(=O)Nc1ccc(F)cc1)CC31CCN(S(=O)(=O)c2cccc(C)c2)CC1
[42]
  AC50: 38.8 µM (active)
[40]
  AC50: 58 µM (active)
Paired box protein Pax-8
  AC50: 7.72 µM (active)

## CN(C)S(=O)(=O)c1ccc(N2CCCC2)c(C(=O)Nc2nccs2)c1
Cells [43]
  IC50: > 138 µM (inactive)
Major prion protein
  IC50: 14.8 µM (inactive)

## c1ccc(-c2nnc(SCc3ncco3)o2)cc1
[44]
  AC50: > 52 µM (inactive)

## COC1=C/C(=C/c2c(O)c(C#N)c3ccccn23)C=CC1=O
[45]
  EC50: > 67.5 µM (inactive)

## CC(C)(C)OC(=O)N(CCc1ccccc1)Cc1ccccc1OCc1cccc(NC(=O)C2CCCC2)c1
[46]
  AC50: > 30 µM (inactive)

## COc1ccccc1NC(=O)c1ccc(=O)oc1
[47]
  IC50: 33.1 µM (inactive)
[48]
  IC50: 30.2 µM (inactive)
